# Laboratory results published in patent US9708336B2, “Metallo-beta-lactamase inhibitors” (priority 2014, dated 2017).
# Like-named read-outs stand apart in the source and are kept apart here.
# What was measured:
# [1] = target: VIM-1 (Pseudomonas aeruginosa (strain ATCC 15692 / DSM 22644 / CIP 104116 / JCM 14847 / LMG 12228 / 1C / PRS 101 / PAO1), UniProt A0A0F7KYQ8); experiment: Enzyme activity: determination of IC50, fluorescence assay with CCF2-FA substrate (VIM-1); type: biochemical
# [2] = target: IMP-1 (Serratia marcescens, UniProt P52699); experiment: biochemical; type: biochemical; settings: read-out: IMP-1 IC50
# Sequence of IMP-1 (P52699 whole entry, looked up): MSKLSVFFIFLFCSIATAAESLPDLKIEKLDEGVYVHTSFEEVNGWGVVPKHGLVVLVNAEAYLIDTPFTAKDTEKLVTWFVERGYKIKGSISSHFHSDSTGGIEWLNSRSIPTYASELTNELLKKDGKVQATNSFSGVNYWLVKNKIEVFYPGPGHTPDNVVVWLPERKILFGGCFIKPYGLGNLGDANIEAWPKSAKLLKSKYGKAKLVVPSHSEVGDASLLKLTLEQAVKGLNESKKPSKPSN
# [3] = target: NDM-1 (Klebsiella pneumoniae, UniProt C7C422); experiment: biochemical; type: biochemical; settings: read-out: NDM-1 IC50
# Sequence of NDM-1 (C7C422 whole entry, looked up, species assumed): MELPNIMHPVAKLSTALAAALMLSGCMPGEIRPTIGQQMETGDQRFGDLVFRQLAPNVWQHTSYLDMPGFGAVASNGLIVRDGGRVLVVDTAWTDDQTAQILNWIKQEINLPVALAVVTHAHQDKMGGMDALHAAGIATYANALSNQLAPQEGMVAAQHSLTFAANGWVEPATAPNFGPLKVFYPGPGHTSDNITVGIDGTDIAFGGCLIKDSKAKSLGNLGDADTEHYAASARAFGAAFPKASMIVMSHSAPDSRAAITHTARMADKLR
# [4] = system: Escherichia coli expressing NDM-1 (CLB30005); experiment: Antibiotic potentiation activity: synergistic concentration (MITC95) with imipenem, OD600 growth; type: cell-based; settings: for Escherichia coli expressing NDM-1 (CLB 30005) MITC95: concentration giving 95% inhibition of bacterial growth
# Procedure, shortened: (§1)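 Each strain, suspended in saline from overnight colonies and diluted 1:100 into 1.1× CAMHB, is dosed with imipenem at 4 μg/ml (or 1 μg/ml) plus compound, incubated 22–24 h at 35 °C and read by absorbance.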
# [5] = system: Serratia marcescens expressing IMP-1 (CL5741); experiment: as above; type: cell-based; settings: for Serratia marcescens expressing IMP-1 (CL5741) MITC95: concentration giving 95% inhibition of bacterial growth
# Procedure, shortened: as §1
# [6] = system: Klebsiella pneumoniae expressing VIM-1 (IHMA599644); experiment: as above; type: cell-based; settings: for Klebsiella pneumoniae expressing VIM-1 (IHMA 599644) MITC95: concentration giving 95% inhibition of bacterial growth
# Procedure, shortened: as §1
# [7] = fluorescence assay with CCF2-FA substrate, read-out: VIM-1 IC50
# [8] = fluorescence assay with CCF2-FA substrate
Structure (SMILES),"IC50 ([1]; VIM-1 enzyme, CCF2-FA fluorescence assay, read-out: VIM-1 IC50)","IC50 ([2]; IMP-1 enzyme, CCF2-FA fluorescence assay)","IC50 ([3]; NDM-1 enzyme, CCF2-FA fluorescence assay)","Escherichia coli MITC95 ([4]; Escherichia coli expressing NDM-1 (CLB30005), 95% growth inhibition)","Serratia marcescens MITC95 ([5]; Serratia marcescens expressing IMP-1 (CL5741), 95% growth inhibition)","Klebsiella pneumoniae MITC95 ([6]; Klebsiella pneumoniae expressing VIM-1 (IHMA599644), 95% growth inhibition)","IC50 [1, 7]","IC50 [2, 8]","IC50 [3, 8]",Escherichia coli expressing NDM-1 (CLB 30005) MITC95 [4],Serratia marcescens expressing IMP-1 (CL5741) MITC95 [5],Klebsiella pneumoniae expressing VIM-1 (IHMA 599644) MITC95 [6],"IC50 ([1]; VIM-1 IC50, fluorescence assay with CCF2-FA substrate)"
"NCc1nc(-c2ccc(-c3cccc(S(N)(=O)=O)c3-c3nn[nH]n3)cc2)no1 [Example 249, 4′-(5-(Aminomethyl)-1,2,4-oxadiazol-3-yl)-2-(2H-tetrazol-5-yl)-[1,1′-biphenyl]-3-sulfonamide]",87 nM,104 nM,7.55 nM,0.7813 µM,3.125 µM,50 µM,–,–,–,–,–,–,–
"COc1cccc(-c2cccc(S(N)(=O)=O)c2-c2nn[nH]n2)n1 [Example 37, 3-(6-methoxypyridin-2-yl)-2-(2H-tetrazol-5-yl)benzenesulfonamide]",–,–,–,–,–,–,206 nM,1210 nM,26.4 nM,2.344 µM,50 µM,200 µM,–
"Cc1nccn1-c1nc(-c2cccc(S(N)(=O)=O)c2-c2nn[nH]n2)cs1 [Example 102, 3-[2-(2-methyl-1H-imidazol-1-yl)-1,3-thiazol-4-yl]-2-(2H-tetrazol-5-yl)benzenesulfonamide]",–,–,–,–,–,–,524 nM,174 nM,128 nM,9.375 µM,53.13 µM,>200 µM,–
"Cc1sccc1-c1cccc(S(N)(=O)=O)c1-c1nn[nH]n1 [Example 108, 3-(2-methylthiophen-3-yl)-2-(2H-tetrazol-5-yl)benzenesulfonamide]",–,–,–,–,–,–,–,255 nM,5.8 nM,1.172 µM,18.75 µM,37.5 µM,45 nM
"NS(=O)(=O)c1cccc(-c2cccnc2)c1-c1nn[nH]n1 [Example 19, 3-pyridin-3-yl-2-(2H-tetrazol-5-yl)benzenesulfonamide]",–,–,–,–,–,–,269 nM,1780 nM,24.5 nM,0.3906 µM,50 µM,50 µM,–
"NS(=O)(=O)c1nccc(-c2ccc(C3CCOCC3)cc2)c1-c1nnn[nH]1 [Example 187, 4-(4-(Tetrahydro-2H-pyran-4-yl)phenyl)-3-(1H-tetrazol-5-yl)pyridine-2-sulfonamide]",–,–,–,–,–,–,150 nM,28.9 nM,2.81 nM,15.63 µM,25 µM,>200 µM,–
"CN(C)CCNC(=O)c1ccc(-c2cccc(S(N)(=O)=O)c2-c2nn[nH]n2)cc1 [Example 87, N-[2-(dimethylamino)ethyl]-3′-sulfamoyl-2′-(2H-tetrazol-5-yl)biphenyl-4-carboxamide]",–,–,–,–,–,–,2090 nM,908 nM,95.5 nM,3.906 µM,18.75 µM,200 µM,–
"NS(=O)(=O)c1cccc(-c2ccc(C3CCNC3=O)cc2)c1-c1nnn[nH]1 (stereo not drawn) [Example 27, 4′-(2-oxopyrrolidin-3-yl)-2-(1H-tetrazol-5-yl)biphenyl-3-sulfonamide]",–,–,–,–,–,–,77.1 nM,13.1 nM,2.23 nM,3.125 µM,3.125 µM,200 µM,–
"NS(=O)(=O)c1cccc(-c2cnn(Cc3ccccn3)c2)c1-c1nn[nH]n1 [Example 101, 3-[1-(pyridin-2-ylmethyl)-1H-pyrazol-4-yl]-2-(2H-tetrazol-5-yl)benzenesulfonamide]",–,–,–,–,–,–,111 nM,517 nM,40.9 nM,3.906 µM,14.06 µM,125 µM,–
"COc1ncc(-c2cccc(S(N)(=O)=O)c2-c2nn[nH]n2)cn1 [Example 91, 3-(2-methoxypyrimidin-5-yl)-2-(2H-tetrazol-5-yl)benzenesulfonamide]",–,–,–,–,–,–,180 nM,830 nM,27.5 nM,0.7813 µM,50 µM,75 µM,–
